# From PubChem BioAssay (NCI)
#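 Each compound was tested at five concentrations against cells in 96-well plates for 48 hours. TGI: concentration producing complete growth inhibition.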
# Experiments:
# Assay in all cases: DTP human tumour cell line panel, 48 h
# RXF 393 renal = tested on: RXF 393 renal
# SN12C renal = tested on: SN12C renal
# SW-620 colon = tested on: SW-620 colon
# RPMI-8226 leukemia = tested on: RPMI-8226 leukemia
# SK-MEL-2 melanoma = tested on: SK-MEL-2 melanoma
# NCI-H23 lung = tested on: NCI-H23 lung
# BT-549 breast = tested on: BT-549 breast
# KM12 colon = tested on: KM12 colon
# HS 578T breast = tested on: HS 578T breast
# SF-268 CNS = tested on: SF-268 CNS
# MDA-MB-435 = tested on: MDA-MB-435
# COLO 205 colon = tested on: COLO 205 colon
# NCI-H226 lung = tested on: NCI-H226 lung
# SK-OV-3 ovarian = tested on: SK-OV-3 ovarian
# SK-MEL-5 melanoma = tested on: SK-MEL-5 melanoma
# OVCAR-3 ovarian = tested on: OVCAR-3 ovarian
# HCT-15 colon = tested on: HCT-15 colon
# SF-539 CNS = tested on: SF-539 CNS
# LOX IMVI melanoma = tested on: LOX IMVI melanoma
# DU-145 prostate = tested on: DU-145 prostate
Structure (SMILES),TGI (RXF 393 renal),TGI (SN12C renal),TGI (SW-620 colon),TGI (RPMI-8226 leukemia),TGI (SK-MEL-2 melanoma),TGI (NCI-H23 lung),TGI (BT-549 breast),TGI (KM12 colon),TGI (HS 578T breast),TGI (SF-268 CNS),TGI (MDA-MB-435),TGI (COLO 205 colon),TGI (NCI-H226 lung),TGI (SK-OV-3 ovarian),TGI (SK-MEL-5 melanoma),TGI (OVCAR-3 ovarian),TGI (HCT-15 colon),TGI (SF-539 CNS),TGI (LOX IMVI melanoma),TGI (DU-145 prostate)
CNn1c(-c2ccc(C)cc2)n[nH]c1=O,> 100 µM,> 100 µM,> 100 µM,> 100 µM,> 100 µM,> 100 µM,> 100 µM,> 100 µM,> 100 µM,> 100 µM,> 100 µM,> 100 µM,> 100 µM,> 100 µM,> 100 µM,> 100 µM,> 100 µM,> 100 µM,> 100 µM,–
CC(C)(C)n1c(=O)n(-c2ccccc2)n(C(C)(C)C)c1=O,> 100 µM,> 100 µM,> 100 µM,–,> 100 µM,> 100 µM,> 100 µM,> 100 µM,> 100 µM,–,–,> 100 µM,> 100 µM,> 100 µM,> 100 µM,> 100 µM,> 100 µM,> 100 µM,> 100 µM,–
COc1c2cc([N+](=O)[O-])cc1CN(C(=O)C(F)(F)F)CCOCCN(C(=O)C(F)(F)F)C2,–,> 100 µM,> 100 µM,–,> 100 µM,> 100 µM,> 100 µM,> 100 µM,> 100 µM,> 100 µM,> 100 µM,> 100 µM,> 100 µM,> 100 µM,> 100 µM,> 100 µM,> 100 µM,> 100 µM,> 100 µM,> 100 µM
CO[C@@H]1C[C@H]2[C@@H]3CC[C@H]([C@H](C)COC(C)=O)[C@@]3(C)CC[C@@H]2[C@@]2(C)CC[C@H]3C[C@]312,> 100 µM,> 100 µM,> 100 µM,> 100 µM,–,> 100 µM,–,> 100 µM,> 100 µM,> 100 µM,> 100 µM,> 100 µM,> 100 µM,–,> 100 µM,> 100 µM,> 100 µM,> 100 µM,> 100 µM,> 100 µM
COC(=O)CSc1nc2[nH]c(SC)c(C(N)=O)c2c(=O)n1-c1ccccc1,> 10 µM,> 10 µM,> 10 µM,> 10 µM,–,> 10 µM,–,> 10 µM,–,> 10 µM,> 10 µM,> 10 µM,–,> 10 µM,> 10 µM,–,> 10 µM,–,> 10 µM,> 10 µM
CC(Cc1ccccc1)N(C)Cc1nc(C2CCC([N+](=O)[O-])O2)no1 (stereo not given),37.6 µM,11 µM,14.9 µM,72.8 µM,–,19.4 µM,–,21 µM,17.9 µM,> 100 µM,20.4 µM,12.9 µM,32.4 µM,84 µM,24.3 µM,–,7.07 µM,8.38 µM,11.6 µM,24.9 µM
COc1ccc(C2Oc3c(cccc3-c3c(-c4ccc(O)cc4)oc4cc(O)cc(O)c4c3=O)C(=O)C2O)cc1O (stereo not given),–,> 100 µM,> 100 µM,> 100 µM,–,> 100 µM,> 100 µM,–,–,> 100 µM,> 100 µM,> 100 µM,> 100 µM,> 100 µM,> 100 µM,> 100 µM,> 100 µM,–,–,> 100 µM
